Data: patent US20230203081A1, “LINCOSAMIDE ANTIBIOTICS AND USES THEREOF” (President and Fellows of Harvard College, priority 2020, published 2023)
Values after ≈ are worked out from the molar mass of the structure shown.

Assays:
Type in all cases: cell-based
E. coli ΔTolC = assay: microbe, parasite or virus in culture; settings: Escherichia coli, E. coli ΔTolC
Protocol: (§1) Minimum inhibitory concentrations (MICs) were determined by broth microdilution method or agar dilution method following the Clinical and Laboratory Standards Institute guidelines. Standard bacterial strains were obtained from American Type Culture Collection (ATCC). Other bacterial strains were obtained from hospitals and commercial sources, so noted in Table 11. […] Specialized procedures were employed for streptococcal and anaerobic strains. All other bacterial strains were sub-cultured on blood agar plates (tryptic soy agar with 5% sheep blood, Hardy Diagnostics) and incubated overnight at 35° C. […] Suspensions were further diluted to obtain a final inoculum of 5×10^5 CFU/mL for broth microdilution experiments.

E. coli LptD = assay: MIC (broth microdilution or agar dilution, CLSI); settings: Escherichia coli, E. coli LptD; read-out: MIC
Protocol: as §1

E. faecalis ATCC 29212 = assay: MIC (broth microdilution or agar dilution, CLSI); settings: Enterococcus faecalis, ATCC29212, E. faecalis ATCC 29212; read-out: MIC
Protocol: as §1

S. pyogenes ATCC 19615 = assay: MIC (broth microdilution or agar dilution, CLSI); settings: Streptococcus pyogenes, ATCC19615, S. pyogenes ATCC 19615; read-out: MIC
Protocol: as §1

K. oxytoca Clinical = assay: MIC (broth microdilution or agar dilution, CLSI); settings: Klebsiella oxytoca; K. oxytoca Clinical; read-out: MIC
Protocol: as §1

S. aureus ATCC 29213 = assay: MIC (broth microdilution or agar dilution, CLSI); settings: Staphylococcus aureus, ATCC29213, S. aureus ATCC 29213; read-out: MIC
Protocol: as §1

S. pneumoniae ATCC 49619 = assay: MIC (broth microdilution or agar dilution, CLSI); settings: Streptococcus pneumoniae, ATCC49619, S. pneumoniae ATCC 49619; read-out: MIC
Protocol: as §1

E. coli ATCC 25922 = assay: MIC (broth microdilution or agar dilution, CLSI); settings: Escherichia coli, ATCC25922; E. coli ATCC 25922; read-out: MIC
Protocol: as §1

E. faecium Clinical VRE = assay: MIC (broth microdilution or agar dilution, CLSI); settings: Enterococcus faecium; E. faecium Clinical VRE; read-out: MIC
Protocol: (§2) Minimum inhibitory concentrations (MICs) were determined by broth microdilution method or agar dilution method following the Clinical and Laboratory Standards Institute guidelines. Standard bacterial strains were obtained from American Type Culture Collection (ATCC). Other bacterial strains were obtained from hospitals and commercial sources, so noted in Table 11. Before the start of the MIC experiment, standard and test compound stock solutions were prepared in dimethyl sulfoxide (DMSO, Aldrich D2650) at a stock concentration of 5,120 μg/mL. The compound concentration range typically employed for each experiment was 128-0.06 μg/mL (2.5% final DMSO concentration). Clindamycin was used as a comparator in all experiments and each experiment was performed in triplicate. Specialized procedures were employed for streptococcal and anaerobic strains. All other bacterial strains were sub-cultured on blood agar plates (tryptic soy agar with 5% sheep blood, Hardy Diagnostics) and incubated overnight at 35° C. Organisms were suspended in cation-adjusted Mueller-Hinton broth (CaMHB, BD 212322) and optical density was adjusted to 0.5 McFarland standard. Suspensions were further diluted to obtain a final inoculum of 5×10^5 CFU/mL for broth microdilution experiments.

S. aureus cErmA = assay: MIC (broth microdilution or agar dilution, CLSI); settings: Staphylococcus aureus; S. aureus cErmA; read-out: MIC
Protocol: as §2

SMILES	MIC (E. coli ΔTolC) [µg/mL]	MIC (E. coli LptD) [µg/mL]	MIC (E. faecalis ATCC 29212) [µg/mL]	MIC (S. pyogenes ATCC 19615) [µg/mL]	MIC (K. oxytoca Clinical) [µg/mL]	MIC (S. aureus ATCC 29213) [µg/mL]	MIC (S. pneumoniae ATCC 49619) [µg/mL]	MIC (E. coli ATCC 25922) [µg/mL]	MIC (E. faecium Clinical VRE) [µg/mL]	MIC (S. aureus cErmA) [µg/mL]
CS[C@H]1O[C@H]([C@H](NC(=O)[C@H]2NC[C@@H]3C[C@H](CC(C)C)CCO[C@H]32)C(C)C(F)(F)F)[C@H](O)[C@H](O)[C@H]1O (mixture of isomers) [FSA-09-04-081, (4S,5aS,8S,8aR)-4-Isobutyl-N-((1R)-3,3,3-trifluoro-2-methyl-1-((2R,3R,4S,5R,6R)-3,4,5-trihydroxy-6-(methylthio)tetrahydro-2H-pyran-2-yl)propyl)octahydro-2H-oxepino[2,3-c]pyrrole-8-carboxamide]	2 (≈ 3.78 µM)	2 (≈ 3.78 µM)	0.125 (≈ 0.236 µM)	0.125 (≈ 0.236 µM)	32 (≈ 60.5 µM)	0.125 (≈ 0.236 µM)	0.125 (≈ 0.236 µM)	32 (≈ 60.5 µM)	0.25 (≈ 0.473 µM)	8 (≈ 15.1 µM)
CCCC[C@@H]1CCO[C@@H]2[C@H](CN[C@@H]2C(=O)N[C@H]([C@H](C)Cl)[C@H]2OC(SC)[C@H](O)C(O)C2O)C1 (some centres unmarked) [FSA-12-03-029]	4 (≈ 8.08 µM)	4 (≈ 8.08 µM)	0.25 (≈ 0.505 µM)	0.06 (≈ 0.121 µM)	32 (≈ 64.6 µM)	0.25 (≈ 0.505 µM)	0.06 (≈ 0.121 µM)	16 (≈ 32.3 µM)	8 (≈ 16.2 µM)	8 (≈ 16.2 µM)
CS[C@H]1O[C@H]([C@H](NC(=O)[C@H]2NC[C@@H]3C[C@H](CC(C)C)CCO[C@H]32)[C@H](C)Sc2ccc(CN3CCOCC3)cc2)[C@H](O)[C@H](O)[C@H]1O [FSA-09-05-68, (4S,5aS,8S,8aR)-4-Isobutyl-N-((1S,2S)-2-((4-(morpholinomethyl)phenyl)thio)-1-((2R,3R,4S,5R,6R)-3,4,5-trihydroxy-6-(methylthio)tetrahydro-2H-pyran-2-yl)propyl)octahydro-2H-oxepino[2,3-c]pyrrole-8-carboxamide]	2 (≈ 2.99 µM)	2 (≈ 2.99 µM)	1 (≈ 1.5 µM)	0.25 (≈ 0.374 µM)	32 (≈ 47.9 µM)	2 (≈ 2.99 µM)	0.125 (≈ 0.187 µM)	32 (≈ 47.9 µM)	4 (≈ 5.99 µM)	8 (≈ 12 µM)
CS[C@H]1O[C@H]([C@H](NC(=O)[C@H]2NC[C@@H]3C[C@H](CC(C)C)CCO[C@H]32)[C@H](C)Sc2ccc(CN3CCNCC3)cc2)[C@H](O)[C@H](O)[C@H]1O [FSA-09-05-076, (4S,5aS,8S,8aR)-4-Isobutyl-N-((1S,2S)-2-((4-(piperazin-1-ylmethyl)phenyl)thio)-1-((2R,3R,4S,5R,6R)-3,4,5-trihydroxy-6-(methylthio)tetrahydro-2H-pyran-2-yl)propyl)octahydro-2H-oxepino[2,3-c]pyrrole-8-carboxamide]	8 (≈ 12 µM)	16 (≈ 24 µM)	4 (≈ 6 µM)	0.25 (≈ 0.375 µM)	16 (≈ 24 µM)	8 (≈ 12 µM)	1 (≈ 1.5 µM)	128 (≈ 192 µM)	16 (≈ 24 µM)	128 (≈ 192 µM)
CS[C@H]1O[C@H]([C@H](NC(=O)[C@H]2NC[C@@H]3C[C@H](CC(C)C)CCO[C@H]32)[C@H](C)Sc2ccc(-c3cccnc3)cc2)[C@H](O)[C@H](O)[C@H]1O [FSA-09-05-074, (4S,5aS,8S,8aR)-4-Isobutyl-N-((1S,2S)-2-((4-(pyridin-3-yl)phenyl)thio)-1-((2R,3R,4S,5R,6R)-3,4,5-trihydroxy-6-(methylthio)tetrahydro-2H-pyran-2-yl)propyl)octahydro-2H-oxepino[2,3-c]pyrrole-8-carboxamide]	4 (≈ 6.19 µM)	4 (≈ 6.19 µM)	0.5 (≈ 0.774 µM)	0.25 (≈ 0.387 µM)	32 (≈ 49.5 µM)	1 (≈ 1.55 µM)	0.125 (≈ 0.194 µM)	32 (≈ 49.5 µM)	2 (≈ 3.1 µM)	2 (≈ 3.1 µM)
CS[C@H]1O[C@H]([C@H](NC(=O)[C@H]2NC[C@@H]3C[C@H](CC(C)C)CCO[C@H]32)[C@H](C)Sc2nnc(N)s2)[C@H](O)[C@H](O)[C@H]1O [FSA-09-04-094, (4S,5aS,8S,8aR)-N-((1S,2S)-2-((5-Amino-1,3,4-thiadiazol-2-yl)thio)-1-((2R,3R,4S,5R,6R)-3,4,5-trihydroxy-6-(methylthio)tetrahydro-2H-pyran-2-yl)propyl)-4-isobutyloctahydro-2H-oxepino[2,3-c]pyrrole-8-carboxamide]	32 (≈ 54.1 µM)	64 (≈ 108 µM)	2 (≈ 3.38 µM)	1 (≈ 1.69 µM)	> 128	4 (≈ 6.76 µM)	0.5 (≈ 0.845 µM)	> 128	128 (≈ 216 µM)	128 (≈ 216 µM)
CS[C@H]1O[C@H]([C@H](NC(=O)[C@H]2NC[C@@H]3C[C@H](CC(C)C)CCO[C@H]32)[C@H](C)Sc2nnc(N3CCNCC3)s2)[C@H](O)[C@H](O)[C@H]1O [FSA-09-05-011, (4S,5aS,8S,8aR)-4-Isobutyl-N-((1S,2S)-2-((5-(piperazin-1-yl)-1,3,4-thiadiazol-2-yl)thio)-1-((2R,3R,4S,5R,6R)-3,4,5-trihydroxy-6-(methylthio)tetrahydro-2H-pyran-2-yl)propyl)octahydro-2H-oxepino[2,3-c]pyrrole-8-carboxamide]	2 (≈ 3.03 µM)	8 (≈ 12.1 µM)	2 (≈ 3.03 µM)	1 (≈ 1.51 µM)	64 (≈ 96.8 µM)	4 (≈ 6.05 µM)	1 (≈ 1.51 µM)	32 (≈ 48.4 µM)	32 (≈ 48.4 µM)	64 (≈ 96.8 µM)
CSC1O[C@H]([C@H](NC(=O)[C@H]2NC[C@@H]3C[C@H](CCCCl)CCO[C@H]32)[C@H](C)Cl)C(O)C(O)[C@H]1O (some centres unmarked) [FSA-12-03-042]	0.5 (≈ 0.97 µM)	2 (≈ 3.88 µM)	0.125 (≈ 0.242 µM)	0.06 (≈ 0.116 µM)	8 (≈ 15.5 µM)	0.125 (≈ 0.242 µM)	0.06 (≈ 0.116 µM)	8 (≈ 15.5 µM)	4 (≈ 7.76 µM)	16 (≈ 31 µM)
CNCc1ccc(S[C@@H](C)[C@@H](NC(=O)[C@H]2NC[C@@H]3C[C@H](CC(C)C)CCO[C@H]32)[C@H]2O[C@H](SC)[C@H](O)[C@@H](O)[C@H]2O)cc1 [FSA-09-05-079, (4S,5aS,8S,8aR)-4-Isobutyl-N-((1S,2S)-2-((4-((methylamino)methyl)phenyl)thio)-1-((2R,3R,4S,5R,6R)-3,4,5-trihydroxy-6-(methylthio)tetrahydro-2H-pyran-2-yl)propyl)octahydro-2H-oxepino[2,3-c]pyrrole-8-carboxamide]	1 (≈ 1.63 µM)	1 (≈ 1.63 µM)	0.5 (≈ 0.817 µM)	0.5 (≈ 0.817 µM)	16 (≈ 26.1 µM)	1 (≈ 1.63 µM)	0.5 (≈ 0.817 µM)	16 (≈ 26.1 µM)	4 (≈ 6.54 µM)	8 (≈ 13.1 µM)
CS[C@H]1O[C@H]([C@H](NC(=O)[C@H]2NC[C@@H]3C[C@H](CC(C)C)CCO[C@H]32)[C@H](C)Sc2ccc(CN3CCCC3)cc2)[C@H](O)[C@H](O)[C@H]1O [FSA-09-05-078, (4S,5aS,8S,8aR)-4-Isobutyl-N-((1S,2S)-2-((4-(pyrrolidin-1-ylmethyl)phenyl)thio)-1-((2R,3R,4S,5R,6R)-3,4,5-trihydroxy-6-(methylthio)tetrahydro-2H-pyran-2-yl)propyl)octahydro-2H-oxepino[2,3-c]pyrrole-8-carboxamide]	4 (≈ 6.14 µM)	2 (≈ 3.07 µM)	1 (≈ 1.53 µM)	0.125 (≈ 0.192 µM)	2 (≈ 3.07 µM)	2 (≈ 3.07 µM)	0.25 (≈ 0.383 µM)	16 (≈ 24.5 µM)	1 (≈ 1.53 µM)	4 (≈ 6.14 µM)
CSC1O[C@H]([C@H](NC(=O)[C@H]2NC[C@@H]3C[C@H](CCCF)CCO[C@H]32)[C@H](C)Cl)C(O)C(O)[C@H]1O (some centres unmarked) [FSA-12-03-035]	4 (≈ 8.02 µM)	4 (≈ 8.02 µM)	0.25 (≈ 0.501 µM)	0.06 (≈ 0.12 µM)	4 (≈ 8.02 µM)	0.125 (≈ 0.25 µM)	0.06 (≈ 0.12 µM)	8 (≈ 16 µM)	4 (≈ 8.02 µM)	8 (≈ 16 µM)
